Each structure is given as a SMILES string.

Assay [1] has as its system IGROV-1. Put plainly: Antiproliferative activity against human IGROV-1 cells assessed as inhibition of cell growth measured after 48 hrs by SRB assay. It is filed as functional. (In SRB staining, fixed cells bind dye roughly in proportion to their protein.)
In assay [2] the test system is HOP-92. Put plainly: Antiproliferative activity against human HOP-92 cells assessed as inhibition of cell growth measured after 48 hrs by SRB assay. It is filed as functional.
For assay [3], the system named is WI-38. Put plainly: Cytotoxicity against human WI-38 cells assessed as reduction in cell viability after 48 hrs by MTT assay. In kind it is cell-based. The settings on record: WI-38, 48 h. In general terms: Tetrazolium dyes change colour on reduction, which living cells bring about.
The subject of assay [4] is HCT-116. Put plainly: Cytotoxicity against human HCT-116 cells assessed as reduction in cell viability after 48 hrs by MTT assay. In kind it is functional, cell-based. The settings on record: HCT-116, 48 h.

Turning to `COc1ccc(-n2c(=S)sc3c(=O)[nH]c(C)nc32)c(OC)c1`, the figures for the GI50 in assay [1] and in assay [2] were 180 nM and under 10 nM, respectively.

Consider `CC[C@H](CO)Nc1nc(NCc2ccccc2)c2ncn(C(C)C)c2n1` [SELICICLIB], for which the figures for the IC50 in assay [3] and in assay [4] were 24.1 µM and 15.5 µM, respectively.

A word on the GI50: it is the concentration giving 50% growth inhibition. A word on the IC50: it is the point on the concentration scale where inhibition reaches its midpoint.

For the origin of these results see ChEMBL document CHEMBL4725331, “An investigative study of antitumor properties of a novel thiazolo[4,5-d]pyrimidine small molecule revealing superior antitumor activity with CDK1 selectivity and potent pro-apoptotic properties” (Bioorg Med Chem, 2020).
